This note sets out measurements from patent US10800789B2, “Antiviral compounds” (Gilead Pharmasset LLC, priority 2012, dated 2020).

Read-outs that look alike come from different tables or passages of the source.

The test system of experiment [1] is stable HCV 1b RLuc replicon cells (dicistronic genotype 1b Con1 replicon). As to the kind of experiment: Renilla luciferase HCV replicon reporter assay, genotype 1b. The experiment is classed as cell-based. The settings on record: Hepatitis C virus, 72 h, stable 1b Con1 RLuc replicon cells, 72 hours; read-out: 1b. Summed up:
(§1)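 Cells carrying the stable or transiently transfected (Huh-Lunet) dicistronic RLuc replicons received 3-fold serial compound dilutions from 10 mM DMSO stocks. After 72 h, cells were lysed and Renilla luciferase read. DMSO served as the no-inhibition control and ITMN-191 above 100×EC50 as the positive control; EC50 by non-linear regression.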

For experiment [2], the system named is stable HCV 2a JFH-1 Rluc replicon cells (L31 present in NS5A). As to the kind of experiment: Renilla luciferase HCV replicon reporter assay, genotype 2a JFH-1. The experiment is classed as cell-based. The settings on record: Hepatitis C virus. The essentials: as §1
The subject of experiment [3] is NS5A chimeric genotype 1b Con1 replicon with genotype 4a ED43 strain NS5A gene. As to the kind of experiment: Replicon assay, genotype 4a NS5A chimera. The following applies: Hepatitis C virus. It counts as cell-based, HCV.
For experiment [4], the system named is NS5A chimeric genotype 2a JFH-1 replicon with genotype 2b MD2b-1 strain NS5A gene (M31 present). Put plainly: Replicon assay, genotype 2b NS5A chimera. The settings on record: Hepatitis C virus. It counts as cell-based, HCV. The essentials:
as §1

Experiment [5] relates to NS5A chimeric genotype 1b Con1 replicon with genotype 3a S52 strain NS5A gene. As to the kind of experiment: Replicon assay, genotype 3a NS5A chimera. It counts as cell-based, HCV. The settings on record: Hepatitis C virus.
The subject of experiment [6] is stable HCV 1a RLuc replicon cells (dicistronic genotype 1a H77 replicon). Put plainly: Renilla luciferase HCV replicon reporter assay, genotype 1a. It counts as cell-based. The settings on record: Hepatitis C virus, 72 h, stable 1a H77 RLuc replicon cells. Summed up: as §1
Experiment [7] deals with NS5A chimeric genotype 2a JFH-1 replicon with genotype 2a J6 strain NS5A gene (M31 present). As to the kind of experiment: Replicon assay, genotype 2a J6 NS5A chimera. It counts as cell-based, HCV. The settings on record: Hepatitis C virus. The essentials: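 72 h compound exposure (3-fold dilutions from 10 mM DMSO stocks) of replicon cells: stable dicistronic RLuc 1a H77, 1b Con1, 2a JFH-1 (NS5A L31); J6-NS5A chimera in JFH-1 (M31), transient in Huh-Lunet or stable. Renilla luciferase read-out, non-linear regression → EC50. DMSO negative control.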

Where [8] appears, read: read-out: 2a JFH (nM), genotype 2a JFH-1 replicon (L31 in NS5A), stable cells.
Where [9] appears, read: read-out: 2a JFH, stable 2a JFH-1 Rluc replicon cells, L31 in NS5A, activity range.
Where [10] appears, read: read-out: 4a (s) (nM), genotype 4a NS5A chimeric replicon, stable replicon cells (s).
Setting [11] is: read-out: 4a (s), (s), activity range.
[12] abbreviates: 2BS, read-out: 2b (s), stably replicating replicon cells (s), activity range.
[13] abbreviates: read-out: 2b (s) (nM), genotype 2b MD2b-1 NS5A chimeric replicon (M31), stably replicating replicon cells (s).
[14] abbreviates: read-out: 3a (s) (nM), genotype 3a NS5A chimeric replicon, stable replicon cells (s).
Setting [15] is: read-out: 3a (s), (s), activity range.
The mark [16] stands for this setting: read-out: 2a J6 (t) (nM), genotype 2a J6 NS5A chimeric replicon (M31), transiently transfected (t) into Huh-Lunet cells.
Setting [17] is: read-out: 2a J6 (t), transiently transfected (t) into Huh-Lunet cells, activity range.

Consider `CC[C@H](C)[C@H](NC(=O)OC)C(=O)N1C[C@@H](COC)C[C@H]1c1nc2ccc3cc4c(cc3c2[nH]1)OCc1cc(-c2cnc([C@@H]3CC[C@H](C)N3C(=O)[C@@H](NC(=O)OC)[C@@H](C)OC)[nH]2)ccc1-4` [ED, methyl{(2S,3S)-1-[(2S,4S)-2-(9-{2-[(2S,5S)-1-{(2S,3R)-3-methoxy-2-[(methoxycarbonyl)amino]butanoyl}-5-methylpyrrolidin-2-yl]-1H-imidazol-5-yl}-1,11-dihydroisochromeno[4′,3′:6,7]naphtho[1,2-d]imidazol-2-yl)-4-(methoxymethyl)pyrrolidin-1-yl]-3-methyl-1-oxopentan-2-yl}carbamate], for which the EC50 was 0.029 nM in experiment [1]; 0.011 nM in experiment [2] (setting [8]); less than 0.1 nM in experiment [2] (setting [9]); 0.025 nM in experiment [3] (setting [10]); less than 0.1 nM in experiment [3] (setting [11]); 0.1 to 0.999 nM in experiment [4] (setting [12]). The EC50 was 0.241 nM in experiment [4] (setting [13]); 0.099 nM in experiment [5] (setting [14]); less than 0.1 nM in experiment [5] (setting [15]); 0.015 nM in experiment [6]; less than 0.1 nM in experiment [6] (activity range); 0.021 nM in experiment [7] (setting [16]). Moreover, the EC50 in experiment [7] (setting [17]) was less than 0.1 nM.
In the case of `CC[C@H](C)[C@H](NC(=O)OC)C(=O)N1[C@H](c2nc3ccc4cc5c(cc4c3[nH]2)OCc2cc(-c3cnc([C@@H]4CC[C@H](C)N4C(=O)[C@@H](NC(=O)OC)C4CCOCC4)[nH]3)ccc2-5)C[C@@H]2CCC[C@@H]21` [IO], the EC50 in experiment [1] was 0.043 nM; in experiment [2] (setting [8]) it was 0.033 nM; in experiment [2] (setting [9]) it was less than 0.1 nM; in experiment [3] (setting [10]), 0.03 nM; in experiment [3] (setting [11]), less than 0.1 nM; in experiment [4] (setting [12]), 0.1 to 0.999 nM. Moreover, the EC50 in experiment [4] (setting [13]) was 0.118 nM; in experiment [5] (setting [14]) it was 0.293 nM; in experiment [5] (setting [15]), 0.1 to 0.999 nM; in experiment [6], 0.027 nM; in experiment [6] (activity range), less than 0.1 nM; in experiment [7] (setting [16]), 0.07 nM. For the same compound, the EC50 in experiment [7] (setting [17]) is less than 0.1 nM.
For `COC(=O)N[C@H](C(=O)N1CCC[C@H]1c1ncc(-c2ccc3c(c2)COc2cc4c(ccc5nc([C@@H]6CCCN6C(=O)[C@@H](NC(=O)OC)C6CCOCC6)[nH]c54)cc2-3)[nH]1)C1CCOCC1` [HI], the EC50 in experiment [1] was 0.416 nM; in experiment [2] (setting [8]), 0.041 nM; in experiment [2] (setting [9]), less than 0.1 nM; in experiment [3] (setting [10]), 0.111 nM; in experiment [3] (setting [11]), 0.1 to 0.999 nM; in experiment [4] (setting [12]), 0.1 to 0.999 nM. Further, the EC50 is 0.203 nM in experiment [4] (setting [13]); 0.447 nM in experiment [5] (setting [14]); 0.1 to 0.999 nM in experiment [5] (setting [15]); 0.203 nM in experiment [6]; 0.1 to 0.999 nM in experiment [6] (activity range); 0.2 nM in experiment [7] (setting [16]). For the same compound, in experiment [7] (setting [17]), the EC50 lay in the range of 0.1 to 0.999 nM.
Turning to `CC[C@H]1CC[C@@H](c2nc3ccc4cc5c(cc4c3[nH]2)OCc2cc(-c3cnc([C@@H]4CC[C@H](C)N4C(=O)[C@@H](NC(=O)OC)C(C)C)[nH]3)ccc2-5)N1C(=O)[C@H](NC(=O)OC)c1ccccc1` [IH], the EC50 in experiment [1] is 0.021 nM; in experiment [2] (setting [8]), 0.024 nM; in experiment [2] (setting [9]), less than 0.1 nM; in experiment [3] (setting [10]), 0.016 nM; in experiment [3] (setting [11]), less than 0.1 nM; in experiment [4] (setting [12]), 0.1 to 0.999 nM. The EC50 was 0.194 nM in experiment [4] (setting [13]); 0.052 nM in experiment [5] (setting [14]); less than 0.1 nM in experiment [5] (setting [15]); 0.02 nM in experiment [6]; less than 0.1 nM in experiment [6] (activity range); 0.514 nM in experiment [7] (setting [16]). In addition, the EC50 in experiment [7] (setting [17]) lay in the range of 0.1 to 0.999 nM.
Regarding `CC[C@H]1CC[C@@H](c2ncc(-c3ccc4c(c3)COc3cc5c(ccc6nc([C@@H]7C[C@@H]8CCC[C@@H]8N7C(=O)[C@@H](NC(=O)OC)C7CCOCC7)[nH]c65)cc3-4)[nH]2)N1C(=O)[C@@H](NC(=O)OC)C(C)C` [IQ], the EC50 is 0.019 nM in experiment [1]; 0.023 nM in experiment [2] (setting [8]); less than 0.1 nM in experiment [2] (setting [9]); 0.021 nM in experiment [3] (setting [10]); less than 0.1 nM in experiment [3] (setting [11]); less than 0.1 nM in experiment [4] (setting [12]). Besides, the EC50 in experiment [4] (setting [13]) is 0.069 nM; in experiment [5] (setting [14]) it was 0.045 nM; in experiment [5] (setting [15]) it was less than 0.1 nM; in experiment [6] it was 0.018 nM; in experiment [6] (activity range), less than 0.1 nM; in experiment [7] (setting [16]), 0.046 nM. Moreover, the EC50 in experiment [7] (setting [17]) was less than 0.1 nM.
As to `CC[C@H](C)[C@H](NC(=O)OC)C(=O)N1[C@@H](C)CC[C@H]1c1ncc(-c2ccc3c(c2)COc2cc4c(ccc5nc([C@@H]6CC[C@H](C)N6C(=O)[C@@H](NC(=O)OC)[C@@H](C)CC)[nH]c54)cc2-3)[nH]1` [EC, Methyl {(2S,3S)-1-[(2S,5S)-2-(9-{2-[(2S,5S)-1-{(2S,3S)-2-[(methoxycarbonyl)amino]-3-methylpentanoyl}-5-methylpyrrolidin-2-yl]-1H-imidazol-5-yl}-1,11-dihydroisochromeno[4′,3′:6,7]naphtho[1,2-d]imidazol-2-yl)-5-methylpyrrolidin-1-yl]-3-methyl-1-oxopentan-2-yl}carbamate], the EC50 in experiment [1] is 0.017 nM; in experiment [2] (setting [8]) it was 0.015 nM; in experiment [2] (setting [9]), less than 0.1 nM; in experiment [3] (setting [10]), 0.004 nM; in experiment [3] (setting [11]), less than 0.1 nM; in experiment [4] (setting [12]), 0.1 to 0.999 nM. Also, the EC50 in experiment [4] (setting [13]) was 0.4 nM; in experiment [5] (setting [14]), 0.029 nM; in experiment [5] (setting [15]), less than 0.1 nM; in experiment [6], 0.008 nM; in experiment [6] (activity range), less than 0.1 nM; in experiment [7] (setting [16]), 0.429 nM. For the same compound, in experiment [7] (setting [17]), the EC50 lay within 0.1 to 0.999 nM.
Consider `[2H]C([2H])([2H])C([2H])(C([2H])([2H])[2H])[C@]([2H])(NC(=O)OC)C(=O)N1[C@@H](C)CC[C@H]1c1ncc(-c2ccc3c(c2)COc2cc4c(ccc5nc([C@@H]6CC[C@H](C)N6C(=O)[C@@]([2H])(NC(=O)OC)C([2H])(C([2H])([2H])[2H])C([2H])([2H])[2H])[nH]c54)cc2-3)[nH]1` [HB], for which the EC50 in experiment [1] is 0.012 nM; in experiment [2] (setting [8]) it was 0.011 nM; in experiment [2] (setting [9]), less than 0.1 nM; in experiment [3] (setting [10]) it was 0.011 nM; in experiment [3] (setting [11]), less than 0.1 nM; in experiment [4] (setting [12]), 0.1 to 0.999 nM. Moreover, the EC50 in experiment [4] (setting [13]) is 0.49 nM; in experiment [5] (setting [14]), 0.038 nM; in experiment [5] (setting [15]), less than 0.1 nM; in experiment [6] it was 0.012 nM; in experiment [6] (activity range), less than 0.1 nM; in experiment [7] (setting [16]), 0.155 nM. For the same compound, in experiment [7] (setting [17]), the EC50 was 0.1 to 0.999 nM.
Regarding `COC(=O)N[C@H](C(=O)N1[C@@H](C)CC[C@H]1c1nc2ccc3cc4c(cc3c2[nH]1)OCc1cc(-c2cnc([C@@H]3[C@@H]5C[C@@H]5CN3C(=O)[C@@H](NC(=O)OC)C3CCOCC3)[nH]2)ccc1-4)C(C)C` [HO], the EC50 is 0.074 nM in experiment [1]; 0.022 nM in experiment [2] (setting [8]); less than 0.1 nM in experiment [2] (setting [9]); 0.04 nM in experiment [3] (setting [10]); less than 0.1 nM in experiment [3] (setting [11]); 0.1 to 0.999 nM in experiment [4] (setting [12]). Moreover, the EC50 in experiment [4] (setting [13]) is 0.639 nM; in experiment [5] (setting [14]), 0.136 nM; in experiment [5] (setting [15]), 0.1 to 0.999 nM; in experiment [6], 0.059 nM; in experiment [6] (activity range), less than 0.1 nM; in experiment [7] (setting [16]), 0.207 nM. Also, the EC50 in experiment [7] (setting [17]) fell in the range of 0.1 to 0.999 nM.
